Assay results from US4731486A, “Hydroformylation using low volatile phosphine ligands” (Union Carbide Corporation, priority 1986, dated 1988).

What was measured:
[1] = Solubility of TPPMS-Na in nonanal with various added solubilizing agents; type: physicochemical
Method: The solubility of a monosulfonated triphenylphosphine sodium salt ligand (TPPMS-Na) having the formula [drawing 28] was measured in C9 aldehyde (nonanal) in the presence of various added solubilizing agents and various mixtures of such agents for the ligand. […] The solubilizing agents and their mixtures were employed in a 1:2 weight:weight ratio with the nonanal.

[2] = Batch hydroformylation of tetradecene-1 (Example 14); conditions: Texanol/TPEG-990 3:1; 100° C.; 300 ppm Rh; 8.7 wt. % ligand; 75 psia 4:1 H2:CO
Method: Each rhodium catalytic precursor solution so prepared was then employed to hydroformylate propylene in a magnetically stirred, 100 mL capacity, stainless steel autoclave which was attached to a gas manifold for introducing gases to the desired partial pressures. The autoclave was also equipped with a pressure calibrator for determining reaction pressure to ±0.01 psia. and a platinum resistance thermometer for determining reactor solution temperatures to ±0.10° C. The reactor was heated externally by two 300 watt heating bands. The reactor solution temperature was controlled by a platinum resistance sensor connected to an external proportional temperature controller for controlling the temperature of the external band heaters.
In each non-aqueous hydroformylation reaction, about 15 milliliters (about 14 grams) of the rhodium catalytic precursor solution so prepared was charged to the autoclave reactor under nitrogen and heated to the reaction temperature employed (as given in Table 1 below). […]
The hydroformylation reaction rate in gram moles per liter per hour of C4 aldehydes produced was determined from sequential 5 psia. pressure drops in the reactor spanning the nominal operating pressure in the reactor, while the mole ratio of linear (n-butyraldehyde) to branched (2-methylpropionaldehyde) product was measured by gas chromatography and the results are given in Table 1 below. […]

[3] = Solubility of metal salt ligands in different aldehydes; type: physicochemical
[4] = Solubility of metal salt ligands in nonanal with added solubilizing agent; type: physicochemical; conditions: 25° C.; nonanal with 1:4 CARBOWAX TPEG-900/TERGITOL NP-9

Structure (SMILES): O=S(=O)([O-])c1cccc(P(c2ccccc2)c2ccccc2)c1.[Na+]
- TPPMS-Na Solubility ([1]; TERGITOL 15-S-3/CARBOWAX PEG 600/Methanol (4:1:1), 25 deg. C.): > 6 Weight Percent
- TPPMS-Na Solubility ([1]; TERGITOL 15-S-3, 25 deg. C.): 2 Weight Percent
- TPPMS-Na Solubility ([1]; TERGITOL 15-S-3, 100 deg. C.): 8 Weight Percent
- TPPMS-Na Solubility ([1]; TERGITOL 15-S-7/CARBOWAX TPEG 990 (3:1), 25 deg. C.): 10 Weight Percent
- TPPMS-Na Solubility ([1]; TERGITOL 15-S-7/CARBOWAX TPEG 990 (3:1), 100 deg. C.): 8 Weight Percent
- TPPMS-Na Solubility ([1]; TERGITOL 15-S-7, 25 deg. C.): 4 Weight Percent
- TPPMS-Na Solubility ([1]; TERGITOL 15-S-7, 100 deg. C.): 8 Weight Percent
- TPPMS-Na Solubility ([1]; TERGITOL 24-L-15N, 25 deg. C.): 2 Weight Percent
- TPPMS-Na Solubility ([1]; TERGITOL 24-L-15N, 100 deg. C.): 8 Weight Percent
- TPPMS-Na Solubility ([1]; TERGITOL 24-L-50N/CARBOWAX PEG 600 (4:1), 25 deg. C.): > 10 Weight Percent
- TPPMS-Na Solubility ([1]; TERGITOL 24-L-50N/CARBOWAX PEG 600 (4:1), 100 deg. C.): > 10 Weight Percent
- TPPMS-Na Solubility ([1]; TERGITOL 24-L-50N, 25 deg. C.): 4 Weight Percent
- TPPMS-Na Solubility ([1]; TERGITOL 24-L-50N, 100 deg. C.): 8 Weight Percent
- TPPMS-Na Solubility ([1]; TERGITOL 24-L-75N/CARBOWAX TPEG 990 (4:1), 25 deg. C.): 12 Weight Percent
- TPPMS-Na Solubility ([1]; TERGITOL 24-L-75N/CARBOWAX TPEG 990 (4:1), 100 deg. C.): 14 Weight Percent
- TPPMS-Na Solubility ([1]; TERGITOL 24-L-75N/CARBOWAX TPEG 990/Methanol (4:1:1), 25 deg. C.): > 16 Weight Percent
- TPPMS-Na Solubility ([1]; TERGITOL 24-L-75N/NIAX PPG 1025 (2:1), 25 deg. C.): > 10 Weight Percent
- TPPMS-Na Solubility ([1]; TERGITOL 24-L-75N/NIAX PPG 1025 (2:1), 100 deg. C.): > 10 Weight Percent
- TPPMS-Na Solubility ([1]; TERGITOL 24-L-75N, 25 deg. C.): 6 Weight Percent
- TPPMS-Na Solubility ([1]; TERGITOL 24-L-75N, 100 deg. C.): 8 Weight Percent
- TPPMS-Na Solubility ([1]; TERGITOL 25-L-5, 25 deg. C.): 4 Weight Percent
- TPPMS-Na Solubility ([1]; TERGITOL 25-L-5, 100 deg. C.): 6 Weight Percent
- TPPMS-Na Solubility ([1]; TERGITOL 26-L-5, 25 deg. C.): 2 Weight Percent
- TPPMS-Na Solubility ([1]; TERGITOL 26-L-5, 100 deg. C.): 6 Weight Percent
- TPPMS-Na Solubility ([1]; TERGITOL NP-4/CARBOWAX TPEG 990 (4:1), 25 deg. C.): 8 Weight Percent
- TPPMS-Na Solubility ([1]; TERGITOL NP-4/CARBOWAX TPEG 990 (4:1), 100 deg. C.): 10 Weight Percent
- TPPMS-Na Solubility ([1]; TERGITOL NP-4, 25 deg. C.): 2 Weight Percent
- TPPMS-Na Solubility ([1]; TERGITOL NP-4, 100 deg. C.): 6 Weight Percent
- TPPMS-Na Solubility ([1]; TERGITOL NP-9/CARBOWAX PEG 600 (3:1), 25 deg. C.): 10 Weight Percent
- TPPMS-Na Solubility ([1]; TERGITOL NP-9/CARBOWAX PEG 600 (3:1), 100 deg. C.): > 10 Weight Percent
- TPPMS-Na Solubility ([1]; TERGITOL NP-9/CARBOWAX PEG 600/Methanol (3:1:1), 25 deg. C.): > 12 Weight Percent
- TPPMS-Na Solubility ([1]; TERGITOL NP-9, 25 deg. C.): 4 Weight Percent
- TPPMS-Na Solubility ([1]; TERGITOL NP-9, 100 deg. C.): 6 Weight Percent
- Linear/Branched Aldehyde Mole Ratio [2]: 12.6
- Reaction Rate [2]: 0.65 G moles/L/hr
- Metal Salt Solubility ([3]; Butyraldehyde, 60 °C): 10.0 Wt. %
- Metal Salt Solubility ([3]; Heptanal, 80 °C): 0.4 Wt. %
- Metal Salt Solubility ([3]; Nonanal, 80 °C): 0.5 Wt. %
- Metal Salt Solubility ([3]; Propionaldehyde, 35 °C): 16.3 Wt. %
- Metal Salt Solubility ([3]; Tridecanal, 80 °C): 0.5 Wt. %
- Metal Salt Solubility ([3]; Valeraldehyde, 80 °C): 5.3 Wt. %
- Metal Salt Solubility [4]: 25 Wt. %
